{"source": "patent US10603323B2", "about": "“Combination of histamine-3 receptor inverse agonists with acetylcholinesterase inhibitors” (priority 2016, dated 2020)", "key": {"[1]": {"tested_on": "extracellular levels of acetylcholine in medial prefrontal cortex", "assay": "Acetylcholine modulation in medial prefrontal cortex (microdialysis)", "assay_type": "in vivo, male Wistar rats", "details": "for mean AUC of percent change in acetylcholine levels, combination compared to donepezil alone: test compound in combination with donepezil (1 mg/kg, s.c.)", "source_text": "Male Wistar rats (240-300 g body weight) were stereotaxically implanted with a microdialysis guide cannula in medial prefrontal cortex (mPFC; AP: +3.2 mm, ML: −0.5 mm, DV: −3.0 mm) under isoflurane anesthesia. Co-ordinates were taken according to atlas for the rat brain (Paxinos and Watson 2004) with reference points taken from bregma and vertical from the skull. The rats were allowed to recover individually for four days in a round bottom Plexiglas bowl with free access to feed and water.\nAfter surgical recovery of 4 days, male Wistar rats were connected to dual quartz lined two-channel liquid swivel (Instech, UK) on a counter balance lever arm, which allowed unrestricted movements of the animal. Sixteen hours before start of the study, a pre-equilibrated microdialysis probe (2 mm dialysis membrane) was inserted into mPFC through the guide cannula. On the day of study, probe was perfused with artificial cerebrospinal fluid (aCSF; NaCl 147 mM, KCl2.7 mM, MgCl2 1 mM, CaCl2. 2H2O 1.2 mM, pH 7.4) at a flow rate of 1.5 μL/min and a stabilization period of 2 h was maintained. Five basal samples were collected at 20 min intervals prior to the treatment of test Compounds (3 or 10 mg/kg, p.o.) or vehicle. […] Dialysate samples were collected for an additional period of 4 h post treatment of test compounds. Dialysates were stored below −50° C. prior to analysis.\nAcetylcholine concentrations in dialysates were quantified using LC-MS/MS based method.\nAll microdialysis data for acetylcholine was plotted as percent change from mean dialysate basal concentrations with 100% defined as the average of five pre-dose values. […] Statistical significance was considered at a p value less than 0.05. Incorrect probe placement was considered as criteria to reject the data from animal."}, "[2]": {"tested_on": "stimulation evoked theta levels in dorsal hippocampus", "assay": "Theta modulation in dorsal hippocampus of anesthetized rats", "assay_type": "in vivo, male Wistar rats", "source_text": "Male Wistar rats (240-320 g) were anesthetized by intraperitoneal administration of urethane (1.2 to 1.5 g/kg) for implantation of a catheter in the left femoral vein. The animal was placed in a stereotaxic frame for implanting an electrode (stainless steel wire, Plastics One) into the dorsal hippocampus (AP, −3.8 mm; ML, +2.2 mm; DV, −2.5 mm; Paxinos and Watson, 2004). Bipolar stimulating electrode (untwisted stainless steel wires, separated by 0.75-1.0 mm at their tips, Plastics One) was implanted in the Nucleus Pontis Oralis (NPO; AP, −7.8 mm; ML, 1.8 mm; DV, −6.0 mm; Paxinos and Watson, 2004). Additionally one electrode was implanted into the cerebellum which served as a reference. Hippocampal θ rhythm was evoked via a 6-s electrical stimulation train (20-160 μA, 0.3-ms pulse duration, 250 Hz) delivered to the NPO at a rate of 0.01 trains/s with a Grass S88 stimulator and PSIU6 stimulus isolation unit (Grass Medical Instruments, Quincy, Mass.). EEG was recorded at a rate of 1000 Hz using Ponemah (Version 5.2) software and stored for off-line analysis using NeuroScore (Version 3.0). Baseline amplitude level was achieved by using the current required to elicit θ rhythm to 50% of the maximal amplitude under control conditions.\nPower in the θ rhythm frequency in the stimulation period during the 30-min baseline period was calculated and the % changes in these measures post treatment were calculated. […] Statistical significance was considered at a p value less than 0.05."}, "[3]": {"biological_target": "T1, Human histamine-3 receptor (Homo sapiens, UniProt Q9Y5N1)", "T1 construct": "expressed in transfected cells; host or cells: CHO cells", "T1 sequence (Q9Y5N1 whole entry)": "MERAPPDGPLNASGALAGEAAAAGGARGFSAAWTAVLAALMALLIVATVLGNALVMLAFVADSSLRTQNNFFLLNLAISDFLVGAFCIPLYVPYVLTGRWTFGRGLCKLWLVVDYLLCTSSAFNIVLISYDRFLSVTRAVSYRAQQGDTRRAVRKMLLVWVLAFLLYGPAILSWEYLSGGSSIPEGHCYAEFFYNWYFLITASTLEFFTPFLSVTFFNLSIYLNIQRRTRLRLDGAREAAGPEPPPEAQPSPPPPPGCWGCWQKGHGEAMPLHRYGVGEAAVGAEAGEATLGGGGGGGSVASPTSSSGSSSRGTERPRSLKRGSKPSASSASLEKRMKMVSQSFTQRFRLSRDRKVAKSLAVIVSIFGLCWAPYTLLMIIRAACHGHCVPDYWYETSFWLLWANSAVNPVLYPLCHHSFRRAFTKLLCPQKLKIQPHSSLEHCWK", "assay": "Determination of Ki value at human histamine-3 receptor (radioligand binding, [3H] R-α-methylhistamine)", "protocol": "Test compounds were evaluated according to the following procedures to determine the Ki value at human and rat histamine-3 receptor.\n• Receptor source: Rat brain frontal cortex or recombinant human cDNA expressed in CHO cells • Radioligand: [3H] R-α-methylhistamine • Final ligand concentration: [3.0 nM] • Non-specific determinant: R-α-methylhistamine (100 μM) • Reference compound: R-α-methylhistamine • Positive control: R-α-methylhistamine Incubation Conditions:\nIncreasing concentrations of test compounds or standard were incubated with membrane receptors and radioligand in 5 mM MgC12 and 50 mM TRIS-HCl (pH 7.4) for 60 minutes at room temperature. The reaction was terminated by rapid vacuum filtration onto the glass fiber filters. Radioactivity trapped onto the filters was determined and compared to the control values in order to ascertain any interactions of the test compound(s) with either cloned human or rat receptor binding site."}, "[4]": {"details": "test compound (3 or 10 mg/kg, p.o.) in combination with donepezil (1 mg/kg, s.c.)"}, "[5]": {"details": "Compound 1 (1 mg/kg, i.v.) in combination with donepezil (0.3 mg/kg, i.v.)"}}, "note": "Structures can show the parent of a compound that is named as a salt. Where two headings read alike, the source gives them in different places."}
{"smiles": "O=C(CN1CCOCC1)Nc1ccc(OC2CCN(C3CCC3)CC2)cc1", "note": "[Compound 1, N-[4-(1-Cyclobutylpiperidin-4-yloxy)phenyl]-2-(morpholin-4-yl)acetamide dihydrochloride]", "values": [{"measurement": "peak acetylcholine levels, % of pre-dose levels", "setting": "[1]; [4]", "value": "1676±150 % of pre-dose levels"}, {"measurement": "peak acetylcholine levels, % of pre-dose levels", "setting": "[1]; test compound (3 or 10 mg/kg, p.o.) in combination with rivastigmine (0.5 mg/kg, s.c.)", "value": "1276±213 % of pre-dose levels"}, {"measurement": "mean AUC of percent change in acetylcholine levels, combination compared to donepezil alone", "setting": "[1]", "value": "significantly higher"}, {"measurement": "mean AUC of percent change in acetylcholine levels, combination compared to rivastigmine alone", "setting": "[1]; test compound in combination with rivastigmine (0.5 mg/kg, s.c.)", "value": "higher"}, {"measurement": "mean AUC of theta power, combination compared to donepezil", "setting": "[2]; [5]", "value": "significantly higher"}, {"measurement": "peak theta power levels, % of pre-dose levels", "setting": "[2]; [5]", "value": "163±15 % of pre-dose levels"}]}
{"smiles": "O=C(CN1CCOCC1)Nc1ccc(OC2CCN(C3CC3)CC2)cc1", "note": "[Compound 2, N-[4-(1-Cyclopropylpiperidin-4-yloxy)phenyl]-2-(morpholin-4-yl)acetamide tartrate]", "values": [{"measurement": "Ki", "setting": "[3]", "value": 0.0199, "unit": "µM"}, {"measurement": "peak acetylcholine levels, % of pre-dose levels", "setting": "[1]; [4]", "value": "3057±468 % of pre-dose levels"}, {"measurement": "mean AUC of percent change in acetylcholine levels, combination compared to donepezil alone", "setting": "[1]", "value": "significantly higher"}]}
{"smiles": "CC(C)N1CCC(Oc2ccc(NC(=O)CN3CCOCC3)cc2)CC1", "note": "[Compound 3, N-[4-(1-Isopropylpiperidin-4-yloxy)phenyl]-2-(morpholin-4-yl)acetamide]", "values": [{"measurement": "Ki", "setting": "[3]; recombinant human cDNA expressed in CHO cells, [3H] R-α-methylhistamine 3.0 nM, read-out: Human histamie-3 receptor Ki", "value": 0.0083, "unit": "µM"}, {"measurement": "peak acetylcholine levels, % of pre-dose levels", "setting": "[1]; [4]", "value": "1874±184 % of pre-dose levels"}, {"measurement": "mean AUC of percent change in acetylcholine levels, combination compared to donepezil alone", "setting": "[1]", "value": "significantly higher"}]}
{"smiles": "COc1cc2c(cc1OC)C(=O)C(CC1CCN(Cc3ccccc3)CC1)C2", "note": "(centres unmarked) [donepezil, reference compound]", "values": [{"measurement": "effect on hippocampal theta power", "setting": "[2]; donepezil alone, 0.3 mg/kg, i.v.", "value": "increase in hippocampal theta power"}]}
{"smiles": "CCN(C)C(=O)Oc1cccc([C@H](C)N(C)C)c1", "note": "[rivastigmine, reference compound]", "values": [{"measurement": "maximum cortical acetylcholine levels, % of basal levels", "setting": "[1]; rivastigmine alone, 0.5 mg/kg, s.c., mPFC dialysate", "value": "612±104 % of basal levels"}]}
